Molecular target: T1, EGFR L858R-T790M (Homo sapiens, UniProt P00533, L858R/T790M)
T1 construct: NCI-H1975 (harboring EGFR heterozygous L858R-T790M mutations); host or cells: NCI-H1975
Test: EGFR degradation, Total EGFR (L858R-specific) HTRF, NCI-H1975
Format: cell-based
Settings: Table 9B; NCI-H1975 cells, 6 hours, Total EGFR HTRF; read-out: H1975 EGFR DC50
Method in brief: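 Cells in RPMI 1640 + 10% FBS treated 6 h at 37°C with compound, 11-point half-log titration from 10 μM top, in duplicate. pY1068 and total EGFR read by HTRF (pan-EGFR antibody for wild-type A431; L858R-specific for mutants); IC50 for phospho inhibition, DC50 for 50% degradation.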

T1 sequence (P00533 25-1210 T790M/L858R): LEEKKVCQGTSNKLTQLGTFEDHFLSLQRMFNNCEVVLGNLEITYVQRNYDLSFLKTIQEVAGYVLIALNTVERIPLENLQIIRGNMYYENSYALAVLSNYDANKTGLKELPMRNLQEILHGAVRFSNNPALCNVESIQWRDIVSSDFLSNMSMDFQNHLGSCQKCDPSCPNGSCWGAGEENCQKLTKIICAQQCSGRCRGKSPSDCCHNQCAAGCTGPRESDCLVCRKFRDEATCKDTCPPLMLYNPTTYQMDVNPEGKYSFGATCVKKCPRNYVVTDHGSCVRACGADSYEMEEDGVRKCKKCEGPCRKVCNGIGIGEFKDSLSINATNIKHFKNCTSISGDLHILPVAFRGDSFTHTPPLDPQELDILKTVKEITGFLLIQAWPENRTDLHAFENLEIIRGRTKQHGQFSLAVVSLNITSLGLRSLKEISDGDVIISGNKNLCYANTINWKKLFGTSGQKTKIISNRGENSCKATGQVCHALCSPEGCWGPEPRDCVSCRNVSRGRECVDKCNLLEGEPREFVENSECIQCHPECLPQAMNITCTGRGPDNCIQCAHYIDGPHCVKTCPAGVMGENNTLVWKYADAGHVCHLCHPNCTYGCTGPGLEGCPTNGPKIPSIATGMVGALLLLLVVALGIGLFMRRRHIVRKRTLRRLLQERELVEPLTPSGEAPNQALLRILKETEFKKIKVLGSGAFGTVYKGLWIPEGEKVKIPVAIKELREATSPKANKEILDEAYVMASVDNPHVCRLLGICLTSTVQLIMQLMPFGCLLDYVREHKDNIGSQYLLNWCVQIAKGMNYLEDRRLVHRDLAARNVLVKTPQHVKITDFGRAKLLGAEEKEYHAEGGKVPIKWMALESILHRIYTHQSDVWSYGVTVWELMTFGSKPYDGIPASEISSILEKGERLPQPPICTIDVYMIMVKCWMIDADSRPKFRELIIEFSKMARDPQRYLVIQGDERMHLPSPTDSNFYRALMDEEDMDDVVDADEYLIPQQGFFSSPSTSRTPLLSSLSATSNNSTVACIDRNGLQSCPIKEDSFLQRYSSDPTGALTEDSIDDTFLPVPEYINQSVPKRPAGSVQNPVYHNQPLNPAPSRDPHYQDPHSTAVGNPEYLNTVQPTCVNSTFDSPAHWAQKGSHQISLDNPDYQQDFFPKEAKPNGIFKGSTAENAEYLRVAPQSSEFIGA

Compound	DC50
Cn1nc(N2CCC(=O)NC2=O)c2cc(F)c(N3CCN(CC(=O)N4CC5(C4)CN(c4ccc(-c6cc(F)c7c(c6)C(=O)N(C(C(=O)Nc6nccs6)c6ncn8c6CCC8)C7)cc4)C5)CC3)cc21 (stereo not drawn) [Compound 123, 2-(6,7-dihydro-5H-pyrrolo[1,2-c]imidazol-1-yl)-2-[6-[4-[2-[2-[4-[3-(2,4-dioxohexahydropyrimidin-1-yl)-5-fluoro-1-methyl-indazol-6-yl]piperazin-1-yl]acetyl]-2,6-diazaspiro[3.3]heptan-6-yl]phenyl]-4-fluoro-1-oxo-isoindolin-2-yl]-N-thiazol-2-yl-acetamide]	< 50 nM
O=C1CCC(Nc2ccc(N3CCCC(O)(CC(=O)N4CC5(C4)CN(c4ccc(-c6cc(F)c7c(c6)C(=O)N(C(C(=O)Nc6nccs6)c6ncn8c6CCC8)C7)cc4)C5)CC3)c(F)c2)C(=O)N1 (single isomer, unassigned; isomer b2) [Compound 167, 2-(6,7-dihydro-5H-pyrrolo[1,2-c]imidazol-1-yl)-2-[6-[4-[2-[2-[1-[4-[[2,6-dioxo-3-piperidyl]amino]-2-fluoro-phenyl]-4-hydroxy-azepan-4-yl]acetyl]-2,6-diazaspiro[3.3]heptan-6-yl]phenyl]-4-fluoro-1-oxo-isoindolin-2-yl]-N-thiazol-2-yl-acetamide, isomer B2]	50 to 150 nM
Cn1nc(N2CCC(=O)NC2=O)c2ccc(C3CCN(CC(=O)N4CC5(C4)CN(c4ccc(-c6cc(F)c7c(c6)C(=O)N(C(C(=O)Nc6nccs6)c6ncn8c6C[C@@H](F)C8)C7)cc4)C5)CC3(F)F)cc21 (stereo partly drawn) [Compound 116, 2-[6-[4-[2-[2-[4-[3-(2,4-dioxohexahydropyrimidin-1-yl)-1-methyl-indazol-6-yl]-3,3-difluoro-1-piperidyl]acetyl]-2,6-diazaspiro[3.3]heptan-6-yl]phenyl]-4-fluoro-1-oxo-isoindolin-2-yl]-2-[(6R)-6-fluoro-6,7-dihydro-5H-pyrrolo[1,2-c]imidazol-1-yl]-N-thiazol-2-yl-acetamide]	< 50 nM

The remaining lines, values ahead:

DC50	Compound
< 50 nM	Cn1nc(N2CCC(=O)NC2=O)c2ccc([C@@H]3CCN(C(=O)CN4CC5(CCN(c6ccc(-c7cc(F)c8c(c7)C(=O)N(C(C(=O)Nc7nccs7)c7ncn9c7CCC9)C8)cc6)CC5)C4)CC3(F)F)cc21 (stereo partly drawn) [Compound 144, 2-(6,7-dihydro-5H-pyrrolo[1,2-c]imidazol-1-yl)-2-[6-[4-[2-[2-[(4S)-4-[3-(2,4-dioxohexahydropyrimidin-1-yl)-1-methyl-indazol-6-yl]-3,3-difluoro-1-piperidyl]-2-oxo-ethyl]-2,7-diazaspiro[3.5]nonan-7-yl]phenyl]-4-fluoro-1-oxo-isoindolin-2-yl]-N-thiazol-2-yl-acetamide]
< 50 nM	Cn1nc(N2CCC(=O)NC2=O)c2ccc(C3CCN(CC(=O)N4CC5(C4)CN(c4ccc(-c6cc(F)c7c(c6)C(=O)N(C(C(=O)Nc6nccs6)c6ncn8c6CCC8)C7)cc4)C5)CC3F)cc21 (stereo not drawn) [Compound 133, 2-(6,7-dihydro-5H-pyrrolo[1,2-c]imidazol-1-yl)-2-[6-[4-[2-[2-[4-[3-(2,4-dioxohexahydropyrimidin-1-yl)-1-methyl-indazol-6-yl]-3-fluoro-1-piperidyl]acetyl]-2,6-diazaspiro[3.3]heptan-6-yl]phenyl]-4-fluoro-1-oxo-isoindolin-2-yl]-N-thiazol-2-yl-acetamide]
50 to 150 nM	O=C1CCN(c2ccc(N3CCC(O)(CC(=O)N4CC5(C4)CN(c4ccc(-c6cc(F)c7c(c6)C(=O)N(C(C(=O)Nc6nccs6)c6ncn8c6CCC8)C7)cc4)C5)CC3)c(C(F)(F)F)c2)C(=O)N1 (stereo not drawn) [Compound 168, 2-(6,7-dihydro-5H-pyrrolo[1,2-c]imidazol-1-yl)-2-[6-[4-[2-[2-[1-[4-(2,4-dioxohexahydropyrimidin-1-yl)-2-(trifluoromethyl)phenyl]-4-hydroxy-4-piperidyl]acetyl]-2,6-diazaspiro[3.3]heptan-6-yl]phenyl]-4-fluoro-1-oxo-isoindolin-2-yl]-N-thiazol-2-yl-acetamide]

Reference: US20240158418A1 (C4 Therapeutics, Inc., priority 2021, published 2024)
